From US20090203577A1 (EXELIXIS, INC., priority 2005, published 2009)
pEC50: −log10 of the molar value. ≈ marks a conversion by molar mass, not a printed value.

Columns and labels:
[1] = biological target: T1, human farnesoid X receptor (Homo sapiens, UniProt Q96RI1); assay: FXR in vitro assays (farnesoid X receptor/ECREx7 co-transfection assay, TR-FRET assay), Table I; format: cell-based; details: for pEC50: agonist activity, one or more of the in vitro assays, read-out: EC50; for Emax: read-out: % Efficacy
T1 construct: CMX-farnesoid X receptor (full length human farnesoid X receptor); expressed in transfected cells; host or cells: CV-1 African Green Monkey Kidney cells
T1 sequence (Q96RI1 1-472 isoform Q96RI1-2): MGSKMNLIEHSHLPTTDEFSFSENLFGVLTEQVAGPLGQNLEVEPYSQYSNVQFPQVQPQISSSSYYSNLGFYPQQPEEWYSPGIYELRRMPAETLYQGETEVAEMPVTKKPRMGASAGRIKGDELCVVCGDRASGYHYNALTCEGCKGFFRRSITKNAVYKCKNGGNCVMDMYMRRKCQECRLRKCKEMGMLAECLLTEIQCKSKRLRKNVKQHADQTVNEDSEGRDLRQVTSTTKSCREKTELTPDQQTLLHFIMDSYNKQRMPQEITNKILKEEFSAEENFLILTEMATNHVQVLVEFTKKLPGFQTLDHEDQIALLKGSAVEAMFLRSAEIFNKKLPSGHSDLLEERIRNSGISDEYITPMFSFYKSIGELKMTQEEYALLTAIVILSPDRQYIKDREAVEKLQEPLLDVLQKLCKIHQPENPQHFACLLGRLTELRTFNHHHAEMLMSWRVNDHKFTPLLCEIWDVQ
T1 sequence (P19793 1-462 partner): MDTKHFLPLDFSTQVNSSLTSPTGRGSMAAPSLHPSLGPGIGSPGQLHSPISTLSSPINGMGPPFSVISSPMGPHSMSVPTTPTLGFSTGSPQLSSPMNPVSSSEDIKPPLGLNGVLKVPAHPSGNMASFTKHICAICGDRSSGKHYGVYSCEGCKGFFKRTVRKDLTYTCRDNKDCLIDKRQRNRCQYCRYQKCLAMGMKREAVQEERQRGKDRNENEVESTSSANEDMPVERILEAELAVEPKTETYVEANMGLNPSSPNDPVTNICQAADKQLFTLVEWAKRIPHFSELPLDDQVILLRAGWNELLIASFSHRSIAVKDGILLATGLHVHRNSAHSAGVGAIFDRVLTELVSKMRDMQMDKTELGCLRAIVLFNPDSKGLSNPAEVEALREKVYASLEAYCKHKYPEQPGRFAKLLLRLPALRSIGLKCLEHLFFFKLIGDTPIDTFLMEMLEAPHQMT
Outline: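 CV-1 monkey kidney cells transfected for an FXR/ECREx7 luciferase co-transfection reporter; luciferase read 18-20 h later in lysates. 8-point dose-response at ½-log spacing, 4 wells per point; EC50/IC50 from four-parameter Hill fit, averaged over at least 3 independent experiments.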

[2] = Kinetic solubility assay
Experimental: The kinetic solubility of test compounds in buffer was evaluated using a 96 well filtration plate format. A 500 μM assay solution in PBS, pH7.4 (or other assay buffer, as needed) was generated form a DMSO stock solution (up to 10 mM). Samples were transferred to a 96 Millipore MultiScreen HTS 96-well Filter plate (Cat# MSSLBPC10) mixed by shaking for 1.5 hours and processed by filtration prior to quantitation by HPLC-UV. Amiodarone and testosterone were used as reference controls.

[3] = pH 7.4, aqueous buffer, kinetic from dmso stock

For “1-methyethyl 1,1-dimethyl- 3-({4-[4-(trifluoromethyl)- 1H-pyrazol-1- yl]phenyl}carbonyl)-1,2,3,6- tetrahydroazepino[4,5- b]indole-5-carboxylate [Example 158]”, the “% Efficacy” value [1] was “A (key: A=>100%; B=80-100%; C=60-80%; D=40-60%; E=<40%)” and the “Kinetic Solubility μM” value ([2]; 500 μM assay solution in PBS, pH7.4 from DMSO stock, filtration, HPLC-UV) was “C (C=0.1-1.0 μM)”.
In the case of `CC(C)OC(=O)C1=CN(C(=O)C2CCN(C)CC2)CC(C)(C)c2c1[nH]c1ccccc21` [Example 6, 1-methylethyl 1,1-dimethyl-3-[(1-methylpiperidin-4-yl)carbonyl]-1,2,3,6-tetrahydroazepino[4,5-b]indole-5-carboxylate], the pEC50 [1] was 5.00 to 6.00, the Emax [1] was > 100% and the solubility kinetic at 1.5 h [2, 3] was 0.1 to 1 µM (≈ 0.0424 to 0.424 µg/mL).
With `CC(C)OC(=O)C1=CN(C(=O)N2CCN(C)CC2)CC(C)(C)c2c1[nH]c1ccccc21` [Example 16] the pEC50 [1] was 6.00 to 7.00, the Emax [1] was > 100% and the solubility kinetic at 1.5 h [2, 3] was 0.1 to 1 µM (≈ 0.0425 to 0.425 µg/mL).
For `CCC(=O)N1C=C(C(=O)OC(C)C)c2[nH]c3ccccc3c2C(C)(C)C1` [Example 19], the pEC50 [1] was 6.00 to 7.00, the Emax [1] was > 100% and the solubility kinetic at 1.5 h [2, 3] was > 10 µM.
With `CCCNC(=O)N1C=C(C(=O)OC(C)C)c2[nH]c3ccccc3c2C(C)(C)C1` [Example 23, 1-methylethyl 1,1-dimethyl-3-[(propylamino)carbonyl]-1,2,3,6-tetrahydroazepino[4,5-b]indole-5-carboxylate] the pEC50 [1] was 6.00 to 7.00, the Emax [1] was > 100% and the solubility kinetic at 1.5 h [2, 3] was 1 to 10 µM (≈ 0.383 to 3.83 µg/mL).
With `CCN1CCN(C(=O)N2C=C(C(=O)OC(C)C)c3[nH]c4ccccc4c3C(C)(C)C2)CC1` [Example 25, 1-methylethyl 3-[(4-ethylpiperazin-1-yl)carbonyl]-1,1-dimethyl-1,2,3,6-tetrahydroazepino[4,5-b]indole-5-carboxylate] the pEC50 [1] was 7.00 to 8.00, the Emax [1] was > 100% and the solubility kinetic at 1.5 h [2, 3] was > 10 µM.
For `CC(C)OC(=O)C1=CN(C(=O)N2CCNCC2)CC(C)(C)c2c1[nH]c1ccccc21` [Example 26, 1-methylethyl 1,1-dimethyl-3-(piperazin-1-ylcarbonyl)-1,2,3,6-tetrahydroazepino [4,5-b]indole-5-carboxylate], the pEC50 [1] was 5.00 to 6.00, the Emax [1] was > 100% and the solubility kinetic at 1.5 h [2, 3] was > 10 µM.
For `CC(C)OC(=O)C1=CN(C(=O)N2CCC(N3CCCC3)CC2)CC(C)(C)c2c1[nH]c1ccccc21` [Example 28, 1-methylethyl 1,1-dimethyl-3[(4-pyrrolidin-1-ylpiperidin-1-yl)carbonyl]-1,2,3,6-tetrahydroazepino[4,5-b]indole-5-carboxylate], the pEC50 [1] was 5.00 to 6.00, the Emax [1] was 80 to 100% and the solubility kinetic at 1.5 h [2, 3] was > 10 µM.
With `CC(C)OC(=O)C1=CN(C(=O)N2CCN(CC3CCN(C)CC3)CC2)CC(C)(C)c2c1[nH]c1ccccc21` [Example 29, 1-methylethyl 1,1-dimethyl-3-({4-[(1-methylpiperidin-4-yl)methyl]piperazin-1-yl}carbonyl)-1,2,3,6-tetrahydroazepino [4,5-b]indole-5-carboxylate] the pEC50 [1] was 5.00 to 6.00, the Emax [1] was 40 to 60% and the solubility kinetic at 1.5 h [2, 3] was > 10 µM.
In the case of `CC(C)OC(=O)C1=CN(C(=O)N2CCN(C(C)C)CC2)CC(C)(C)c2c1[nH]c1ccccc21` [Example 30, 1-methylethyl 1,1-dimethyl-3-{[4-(1-methylethyl)piperazin-1-yl)carbonyl}-1,2,3,6-tetrahydroazepino[4,5-b]indole-5-carboxylate], the pEC50 [1] was 6.00 to 7.00, the Emax [1] was > 100% and the solubility kinetic at 1.5 h [2, 3] was > 10 µM.
In the case of `CCCN1CCN(C(=O)N2C=C(C(=O)OC(C)C)c3[nH]c4ccccc4c3C(C)(C)C2)CC1` [Example 31], the pEC50 [1] was 6.00 to 7.00, the Emax [1] was > 100% and the solubility kinetic at 1.5 h [2, 3] was 1 to 10 µM (≈ 0.453 to 4.53 µg/mL).
With `CCN(CC)C1CCN(C(=O)N2C=C(C(=O)OC(C)C)c3[nH]c4ccccc4c3C(C)(C)C2)CC1` [Example 33, 1-methylethyl 3-{[4-0 (diethylamino)piperidin-1-yl]carbonyl}-1,1-dimethyl-1,2,3,6-tetrahydroazepino[4,5-b]indole-5-carboxylate] the pEC50 [1] was 5.00 to 6.00, the Emax [1] was 60 to 80% and the solubility kinetic at 1.5 h [2, 3] was > 10 µM.
In the case of `CC(C)CCC(=O)N1C=C(C(=O)OC(C)C)c2[nH]c3ccccc3c2C(C)(C)C1` [Example 34, 1-methylethyl 1,1-dimethyl-3-(4-methylpentanoyl)-1,2,3,6-tetrahydro azepino [4,5-b]indole-5-carboxylate], the pEC50 [1] was 7.00 to 8.00, the Emax [1] was > 100% and the solubility kinetic at 1.5 h [2, 3] was > 10 µM.
With `CC(C)OC(=O)C1=CN(C(=O)N2CCN(C)CC2)CC(C)(C)c2c1[nH]c1cc(F)ccc21` [Example 35, 1-methylethyl 8-fluoro-1,1-dimethyl-3-[(4-methylpiperazin-1-yl)carbonyl]-1,2,3,6-tetrahydroazepino[4,5-b]indole-5-carboxylate] the pEC50 [1] was 7.00 to 8.00, the Emax [1] was > 100% and the solubility kinetic at 1.5 h [2, 3] was > 10 µM.
For `CCN1CCN(C(=O)N2C=C(C(=O)OC(C)C)c3[nH]c4cc(F)ccc4c3C(C)(C)C2)CC1` [Example 36, 1-methylethyl 3-[(4-ethylpiperazin-1-yl)carbonyl]-8-fluoro-1,1-dimethyl-1,2,3,6-tetrahydroazepino[4,5-b]indole-5-carboxylate], the pEC50 [1] was 7.00 to 8.00, the Emax [1] was > 100% and the solubility kinetic at 1.5 h [2, 3] was > 10 µM.
In the case of `CC(C)OC(=O)C1=CN(C(=O)N2CCN(CC(=O)N3CCCC3)CC2)CC(C)(C)c2c1[nH]c1ccccc21` [Example 37, 1-methylethyl 1,1-dimethyl-3-{[4-(2-oxo-2-pyrrolidin-1-ylethyl)piperazin-1-yl]carbonyl}-1,2,3,6-tetrahydroazepino [4,5-b]indole-5-carboxylate], the pEC50 [1] was 6.00 to 7.00, the Emax [1] was > 100% and the solubility kinetic at 1.5 h [2, 3] was > 10 µM.
With `CCN(CC)CCN1CCN(C(=O)N2C=C(C(=O)OC(C)C)c3[nH]c4ccccc4c3C(C)(C)C2)CC1` [Example 38, 1-methylethyl 3-({4-[2-(diethylamino)ethyl]piperazin-1-yl}carbonyl)-1,1-dimethyl-1,2,3,6-tetrahydroazepino[4,5-b]indole-5-carboxylate] the pEC50 [1] was 5.00 to 6.00, the Emax [1] was 60 to 80% and the solubility kinetic at 1.5 h [2, 3] was > 10 µM.
For `CC(C)OC(=O)C1=CN(C(=O)N2CCCC(N(C)C)C2)CC(C)(C)c2c1[nH]c1ccccc21` (centres unmarked) [Example 39, 1-methylethyl 3-{[3-(dimethylamino)piperidin-1-yl]carbonyl}-1,1-dimethyl-1,2,3,6-tetrahydroazepino[4,5-b]indole-5-carboxylate], the pEC50 [1] was 6.00 to 7.00, the Emax [1] was > 100% and the solubility kinetic at 1.5 h [2, 3] was > 10 µM.
`CC(C)OC(=O)C1=CN(C(=O)c2cccc(OCCN3CCCCC3)c2)CC(C)(C)c2c1[nH]c1ccccc21` [Example 159, 1-methylethyl 1,1-dimethyl-3-({3-[(2-piperidin-1-ylethyl)oxy]phenyl}carbonyl)-1,2,3,6-tetrahydroazepino[4,5-b]indole-5-carboxylate] showed a solubility kinetic at 1.5 h [2, 3] of 1 to 10 µM (≈ 0.53 to 5.3 µg/mL).
In the case of `CC(C)OC(=O)C1=CN(C(=O)c2ccc(OCCN3CCOCC3)cc2)CC(C)(C)c2c1[nH]c1ccccc21` [Example 181, 1-methylethyl 1,1-dimethyl-3-({4-[(2-morpholin-4-ylethyl)oxy]phenyl}carbonyl)-1,2,3,6-tetrahydroazepino[4,5-b]indole-5-carboxylate], the solubility kinetic at 1.5 h [2, 3] was 1 to 10 µM (≈ 0.532 to 5.32 µg/mL).
With `C[C@]12CC[C@H]3[C@@H](CCC4=CC(=O)CC[C@@]43C)[C@@H]1CC[C@@H]2O` [testosterone, reference compound] the solubility kinetic [2, 3] was ~330 µM (≈ 95.2 µg/mL).
